SMILES strings stand for the structures. Some results are limits rather than exact numbers.

The results in this text go back to ChEMBL document CHEMBL4680342, “Discovery of DB18, a potent inhibitor of CLK kinases with a high selectivity against DYRK1A kinase” (Bioorg Med Chem, 2021).

The target in data set [1] is Cyclin-dependent kinase 5/CDK5 activator 1 (Homo sapiens) (UniProt Q00535+Q15078). The experiment in a line: Inhibition of human CDK5/p25 assessed as residual activity at 10 uM by ADP-Glo assay relative to control. The data set is classed as protein-complex assay. A general note: In ADP-Glo the light output rises with the ADP produced.
For data set [2], the target named is CDK9/cyclin T1 (Homo sapiens) (UniProt O60563+P50750). The experiment in a line: Inhibition of human CDK9/CyclinT assessed as residual activity at 10 uM by ADP-Glo assay relative to control. It is filed as protein-complex assay.
For data set [3], the target named is Serine/threonine-protein kinase pim-1 (Homo sapiens) (UniProt P11309). The experiment in a line: Inhibition of human PIM1 assessed as residual activity at 10 uM by ADP-Glo assay relative to control.
The target of data set [4] is Dual specificity protein kinase CLK1 (Mus musculus) (UniProt P22518). Briefly: Inhibition of mouse CLK1 assessed as residual activity at 10 uM by ADP-Glo assay relative to control.
Data set [5] has as its target DYRK1A (dual specificity tyrosine-phosphorylation-regulated kinase 1A) (Rattus norvegicus, UniProt Q63470). Briefly: Inhibition of rat DYRK1A (1 to 499 residues) assessed as residual activity at 10 uM by ADP-Glo assay relative to control. The settings on record: rat DYRK1A enzyme (residues 1 to 499), read-out: Activity.
The target of data set [6] is T1, Serine/threonine-protein kinase haspin (Homo sapiens) (UniProt Q8TF76).
T1 sequence (whole entry): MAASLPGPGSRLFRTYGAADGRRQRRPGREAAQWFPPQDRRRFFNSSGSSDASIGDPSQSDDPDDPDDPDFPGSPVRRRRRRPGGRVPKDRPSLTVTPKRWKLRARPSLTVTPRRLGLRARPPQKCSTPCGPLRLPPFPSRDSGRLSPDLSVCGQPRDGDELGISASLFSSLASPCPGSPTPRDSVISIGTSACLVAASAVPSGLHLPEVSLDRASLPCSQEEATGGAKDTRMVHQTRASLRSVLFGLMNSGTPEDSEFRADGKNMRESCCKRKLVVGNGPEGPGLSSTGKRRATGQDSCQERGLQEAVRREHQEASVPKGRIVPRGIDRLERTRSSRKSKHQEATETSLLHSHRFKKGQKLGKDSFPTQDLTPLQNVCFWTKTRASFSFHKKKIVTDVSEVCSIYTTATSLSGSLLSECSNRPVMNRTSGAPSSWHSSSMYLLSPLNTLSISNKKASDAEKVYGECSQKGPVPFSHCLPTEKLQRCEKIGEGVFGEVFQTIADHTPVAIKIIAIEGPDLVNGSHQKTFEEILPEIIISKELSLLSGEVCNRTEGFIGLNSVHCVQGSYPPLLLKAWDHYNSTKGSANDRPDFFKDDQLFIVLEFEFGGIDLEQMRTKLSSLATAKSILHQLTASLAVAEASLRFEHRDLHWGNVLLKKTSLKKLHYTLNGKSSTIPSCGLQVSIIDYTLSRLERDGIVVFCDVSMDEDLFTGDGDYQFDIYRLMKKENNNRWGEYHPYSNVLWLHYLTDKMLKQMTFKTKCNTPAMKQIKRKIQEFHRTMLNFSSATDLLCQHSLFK
The experiment in a line: Inhibition of human HASPIN assessed as residual activity at 10 uM by ADP-Glo assay relative to control.

Data set [7] addresses Glycogen synthase kinase-3 beta (Homo sapiens) (UniProt P49841). The experiment in a line: Inhibition of human GSK3beta assessed as residual activity at 10 uM by ADP-Glo assay relative to control.
Data set [8] addresses Casein kinase I isoform epsilon (Homo sapiens) (UniProt P49674). Briefly: Inhibition of human CK1epsilon assessed as residual activity at 10 uM by ADP-Glo assay relative to control.
The subject of the next data set is Huh-7. The experiment in a line: cells. The settings on record: Homo sapiens, Huh-7, 48 h.
Another data set relates to Caco-2. The experiment in a line: cells. The settings on record: Homo sapiens, Caco-2, 48 h.
The test system of a further data set is MDA-MB-231. The experiment in a line: cells. The following applies: Homo sapiens, MDA-MB-231, 48 h.
A further data set deals with HCT-116. The experiment in a line: cells. The settings on record: Homo sapiens, HCT-116, 48 h.
For another data set, the system named is PC-3. The experiment in a line: cells. The settings on record: Homo sapiens, PC-3, 48 h.
The test system of another data set is NCI-H727. Briefly: cells. The following applies: Homo sapiens, NCI-H727, 48 h.
Another data set deals with MCF7. The experiment in a line: cells. The settings on record: Homo sapiens, MCF7, 48 h.
A further data set deals with Fibroblast. Briefly: cells. The settings on record: Homo sapiens, 48 h.

Cyclin-dependent kinase 5/CDK5 activator 1 (Homo sapiens), sequence (Q00535 whole entry): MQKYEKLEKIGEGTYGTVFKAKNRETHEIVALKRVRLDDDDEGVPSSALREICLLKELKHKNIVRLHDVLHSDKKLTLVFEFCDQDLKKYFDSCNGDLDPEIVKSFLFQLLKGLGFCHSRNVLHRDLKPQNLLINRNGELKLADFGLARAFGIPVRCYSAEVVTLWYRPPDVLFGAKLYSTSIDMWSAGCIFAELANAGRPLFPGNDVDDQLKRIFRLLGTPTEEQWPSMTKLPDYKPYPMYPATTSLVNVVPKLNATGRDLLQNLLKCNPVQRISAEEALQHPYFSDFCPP
Cyclin-dependent kinase 5/CDK5 activator 1 (Homo sapiens), sequence (Q15078 99-307 partner limits assumed): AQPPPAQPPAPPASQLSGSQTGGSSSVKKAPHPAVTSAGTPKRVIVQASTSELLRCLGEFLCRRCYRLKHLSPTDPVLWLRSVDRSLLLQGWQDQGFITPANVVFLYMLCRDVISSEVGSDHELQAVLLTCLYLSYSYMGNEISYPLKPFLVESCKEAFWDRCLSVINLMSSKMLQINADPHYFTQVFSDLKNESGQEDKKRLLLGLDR
Serine/threonine-protein kinase pim-1 (Homo sapiens), sequence (P11309 whole entry, looked up): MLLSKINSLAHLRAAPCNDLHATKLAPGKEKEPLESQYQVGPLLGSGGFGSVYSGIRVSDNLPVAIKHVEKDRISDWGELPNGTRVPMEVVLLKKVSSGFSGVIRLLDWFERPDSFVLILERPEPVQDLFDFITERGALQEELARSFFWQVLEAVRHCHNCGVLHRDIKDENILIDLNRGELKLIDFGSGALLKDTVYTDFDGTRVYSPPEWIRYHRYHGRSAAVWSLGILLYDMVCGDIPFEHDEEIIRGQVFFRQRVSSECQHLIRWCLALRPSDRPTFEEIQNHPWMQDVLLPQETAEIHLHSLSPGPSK
Casein kinase I isoform epsilon (Homo sapiens), sequence (P49674 whole entry, looked up, canonical isoform): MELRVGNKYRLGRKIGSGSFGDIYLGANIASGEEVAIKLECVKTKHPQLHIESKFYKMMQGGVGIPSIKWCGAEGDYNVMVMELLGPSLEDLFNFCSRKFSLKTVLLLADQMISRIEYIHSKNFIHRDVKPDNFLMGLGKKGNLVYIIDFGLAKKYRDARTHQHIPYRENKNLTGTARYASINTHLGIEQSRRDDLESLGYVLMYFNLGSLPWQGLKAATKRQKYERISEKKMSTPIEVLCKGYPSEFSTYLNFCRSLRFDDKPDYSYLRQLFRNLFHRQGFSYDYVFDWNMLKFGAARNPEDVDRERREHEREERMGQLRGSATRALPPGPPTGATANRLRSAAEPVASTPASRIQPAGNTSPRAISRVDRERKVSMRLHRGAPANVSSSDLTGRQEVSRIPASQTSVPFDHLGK
Dual specificity protein kinase CLK1 (Mus musculus), sequence (P22518 whole entry, looked up, the tested form may be a part): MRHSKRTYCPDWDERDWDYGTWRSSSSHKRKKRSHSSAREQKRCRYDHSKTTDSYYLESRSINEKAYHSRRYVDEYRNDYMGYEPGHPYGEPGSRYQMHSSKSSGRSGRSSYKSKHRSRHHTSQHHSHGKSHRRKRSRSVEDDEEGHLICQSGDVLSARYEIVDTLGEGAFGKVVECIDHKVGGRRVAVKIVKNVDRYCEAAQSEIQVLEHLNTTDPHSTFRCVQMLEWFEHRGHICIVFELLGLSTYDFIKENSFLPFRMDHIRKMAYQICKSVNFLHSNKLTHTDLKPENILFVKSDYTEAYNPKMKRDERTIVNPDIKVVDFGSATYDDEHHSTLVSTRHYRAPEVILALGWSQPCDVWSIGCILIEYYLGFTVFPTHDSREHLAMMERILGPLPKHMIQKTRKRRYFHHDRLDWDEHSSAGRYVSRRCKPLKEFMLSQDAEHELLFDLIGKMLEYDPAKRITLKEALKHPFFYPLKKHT
Glycogen synthase kinase-3 beta (Homo sapiens), sequence (P49841 whole entry, looked up, canonical isoform): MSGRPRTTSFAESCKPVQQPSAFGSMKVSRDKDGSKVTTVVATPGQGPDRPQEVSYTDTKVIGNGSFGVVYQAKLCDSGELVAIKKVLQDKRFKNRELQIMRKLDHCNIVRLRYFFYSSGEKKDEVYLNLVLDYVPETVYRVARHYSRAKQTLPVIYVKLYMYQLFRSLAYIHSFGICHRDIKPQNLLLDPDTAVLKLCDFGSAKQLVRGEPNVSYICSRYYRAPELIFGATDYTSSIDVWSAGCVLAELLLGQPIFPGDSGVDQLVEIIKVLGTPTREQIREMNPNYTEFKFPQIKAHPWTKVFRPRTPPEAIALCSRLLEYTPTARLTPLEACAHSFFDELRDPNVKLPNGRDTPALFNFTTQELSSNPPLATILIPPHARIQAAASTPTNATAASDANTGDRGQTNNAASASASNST
Description for Fibroblast: Cytotoxicity against human Fibroblast cells assessed as reduction in cell viability incubated for 48 hrs by Hoechst-33342 staining based cell counting method (Rvb > 25 microM)
Description for HCT-116: Cytotoxicity against human HCT-116 cells assessed as reduction in cell viability incubated for 48 hrs by Hoechst-33342 staining based cell counting method (Rvb > 25 microM)
Description for MDA-MB-231: Cytotoxicity against human MDA-MB-231 cells assessed as reduction in cell viability incubated for 48 hrs by Hoechst-33342 staining based cell counting method (Rvb > 25 microM)
Description for NCI-H727: Cytotoxicity against human NCI-H727 cells assessed as reduction in cell viability incubated for 48 hrs by Hoechst-33342 staining based cell counting method (Rvb > 25 microM)
Description for PC-3: Cytotoxicity against human PC-3 cells assessed as reduction in cell viability incubated for 48 hrs by Hoechst-33342 staining based cell counting method (Rvb > 25 microM)

As a reminder, the IC50 is the concentration at which inhibition is half-maximal. Higher therefore signals weaker potency. In the case of `Clc1cccc(Nc2ncc3cccc(OCc4cn(Cc5c(Cl)cccc5Cl)nn4)c3n2)c1`, the Activity was found to be 94% in data set [1]; 53% in data set [2]; 97% in data set [3]; 48% in [4]; 59% in data set [6]; 58% in [7]. The Activity in [8] stood at 100%. Moreover, the activity at 10 µM in data set [5] was 75%. The IC50 in the data set with Huh-7 stood at 7 µM; in the data set with Caco-2, 9 µM; in the data set on MDA-MB-231 it was 21 µM; in the data set on HCT-116, 24 µM; in the data set on PC-3, 7 µM; in the data set on NCI-H727 it was 5 µM. For the same compound, the IC50 in the data set with MCF7 was 6 µM; in the data set on Fibroblast, 14 µM.

For `O=[N+]([O-])c1ccc(-n2cc(COc3cccc4cnc(Nc5cccc(Cl)c5)nc34)nn2)cc1`, the Activity in [1] was found to be 94%; in data set [2], 63%; in [3] it was 79%; in data set [4] it was 26%; in data set [6] it was 100%; in [7], 87%. Further, the Activity in [8] was 86%. In addition, in data set [5], the activity at 10 µM worked out at 100%.

In the case of `Clc1ccc(-n2cc(COc3cccc4cnc(Nc5cccc(Cl)c5)nc34)nn2)cc1`, the Activity in data set [1] came to 100%; in [2], 95%; in data set [3], 86%; in data set [4], 85%; in data set [6], 100%; in [7], 87%. Moreover, the Activity in data set [8] came to 100%. Moreover, the activity at 10 µM in data set [5] is 99%. Moreover, the IC50 with Huh-7 is 24 µM; in the data set on Caco-2 it was 24 µM; in the data set on MDA-MB-231 it was more than 25 µM; with HCT-116, more than 25 µM; with PC-3, more than 25 µM; with NCI-H727, more than 25 µM. Further, the IC50 with MCF7 and in the data set on Fibroblast was more than 25 µM each time.

Take `CC[C@H](CO)Nc1nc(NCc2ccccc2)c2ncn(C(C)C)c2n1` [SELICICLIB]: the IC50 with Huh-7 was 14 µM; with NCI-H727 it was 28 µM; in the data set with MCF7, 9 µM; with Fibroblast, 6 µM.

For the compound `Clc1cccc(Nc2ncc3cccc(OCc4cn(-c5ccc(Br)cc5)nn4)c3n2)c1`, the Activity in data set [1] is 100%; in [2] it was 81%; in data set [3] it was 79%; in data set [4] it was 56%; in [6], 100%; in data set [7], 77%. In data set [8], the Activity stood at 79%. In [5], the activity at 10 µM is 95%. Moreover, the IC50 with Huh-7 came to 14 µM; in the data set with Caco-2 it was 11 µM; in the data set on MDA-MB-231 it was 33 µM; in the data set on HCT-116, 17 µM; with PC-3 it was 18 µM; with NCI-H727, 8 µM. The IC50 in the data set with MCF7 is 9 µM; with Fibroblast, more than 25 µM.

As for `COc1cccc(-n2cc(COc3cccc4cnc(Nc5cccc(Cl)c5)nc34)nn2)c1`, the Activity was found to be 94% in data set [1]; 85% in data set [2]; 79% in [3]; 27% in [4]; 100% in [6]; 47% in data set [7]. Moreover, the Activity in [8] was found to be 40%. In addition, the activity at 10 µM in [5] stood at 87%. Moreover, the IC50 with Huh-7 is 23 µM; in the data set on Caco-2 it was 20 µM; in the data set on MDA-MB-231, 25 µM; in the data set on HCT-116, 23 µM; in the data set on PC-3, 10 µM; with NCI-H727 it was more than 25 µM. Further, the IC50 in the data set with MCF7 came to 8 µM; in the data set on Fibroblast, 18 µM.

`COc1ccccc1-n1cc(COc2cccc3cnc(Nc4cccc(Cl)c4)nc23)nn1`: the Activity turned out to be 94% in data set [1]; 74% in data set [2]; 84% in data set [3]; 26% in data set [4]; 100% in [6]; 61% in data set [7]. Also, in data set [8], the Activity worked out at 96%. In addition, the activity at 10 µM in [5] came out at 100%. In addition, the IC50 in the data set on Huh-7 was 7 µM; in the data set with Caco-2 it was more than 25 µM; in the data set with MDA-MB-231, more than 25 µM; in the data set with HCT-116, more than 25 µM; with PC-3, 8 µM; in the data set with NCI-H727, more than 25 µM. Further, the IC50 in the data set on MCF7 is 6 µM; in the data set on Fibroblast, more than 25 µM.

Consider `O=[N+]([O-])c1ccc(Cn2cc(COc3cccc4cnc(Nc5cccc(Cl)c5)nc34)nn2)cc1`, for which the Activity came to 90% in [1]; 72% in [2]; 77% in data set [3]; 39% in data set [4]; 76% in data set [6]; 60% in data set [7]. In data set [8], the Activity was found to be 65%. Also, the activity at 10 µM in data set [5] was found to be 88%.

For the compound `COc1cccc2c1C(=O)c1c(O)c3c(c(O)c1C2=O)C[C@@](O)(C(=O)CO)C[C@@H]3O[C@H]1C[C@H](N)[C@H](O)[C@H](C)O1` [DOXORUBICIN], the IC50 in the data set with Huh-7 was 0.036 µM; in the data set on Caco-2 it was 0.05 µM; in the data set with MDA-MB-231, 0.01 µM; in the data set with PC-3, 0.06 µM; in the data set on Fibroblast, 0.015 µM.

On to `COc1ccc(-n2cc(COc3cccc4cnc(Nc5cccc(Cl)c5)nc34)nn2)cc1`, for which the Activity in data set [1] was 100%; in [2], 100%; in data set [3], 69%; in data set [4] it was 70%; in data set [6], 100%; in [7], 47%. In addition, the Activity in data set [8] was found to be 86%. In addition, the activity at 10 µM in data set [5] was 94%.

As for `Clc1cccc(Nc2ncc3cccc(OCc4cn(Cc5ccccc5)nn4)c3n2)c1`, the Activity in [1] was found to be 87%; in data set [2], 100%; in [3], 84%; in [4], 65%; in data set [6], 83%; in data set [7], 48%. The Activity in data set [8] amounted to 79%. The activity at 10 µM in data set [5] came out at 81%.

For `Clc1cccc(Nc2ncc3cccc(OCc4cn(-c5cc(Cl)cc(Cl)c5)nn4)c3n2)c1`, the Activity in data set [1] was found to be 90%; in data set [2], 64%; in data set [3] it was 78%; in data set [4] it was 81%; in data set [6], 77%; in [7] it was 35%. Besides, in [8], the Activity came out at 55%. Moreover, in [5], the activity at 10 µM is 100%. In addition, the IC50 with Huh-7 was 7 µM; in the data set with Caco-2, 8 µM; in the data set with MDA-MB-231 it was 9 µM; in the data set on HCT-116, 8 µM; in the data set on PC-3 it was 8 µM; in the data set with NCI-H727, 7 µM. The figures for the IC50 in the data set with MCF7 and in the data set with Fibroblast were 5 µM and 8 µM, respectively.

With `CC(=O)O[C@H]1C(=O)[C@@]2(C)[C@H]([C@H](OC(=O)c3ccccc3)[C@]3(O)C[C@H](OC(=O)[C@H](O)[C@@H](NC(=O)c4ccccc4)c4ccccc4)C(C)=C1C3(C)C)[C@]1(OC(C)=O)CO[C@@H]1C[C@@H]2O` [PACLITAXEL], the IC50 in the data set with Huh-7 came out at 0.013 µM; in the data set on Caco-2, 0.014 µM; with MDA-MB-231, 0.03 µM; with HCT-116, 0.002 µM; in the data set on PC-3, 0.002 µM; with NCI-H727 it was 0.01 µM. Also, the IC50 in the data set on Fibroblast was 0.1 µM.
